From patent US20230181535A1, “UBIQUITIN-LIGASE INHIBITORS FOR THE TREATMENT OF CANCER” (FUNDACIÓN PROFESOR NOVOA SANTOS, priority 2020, published 2023)
Each block holds one compound with its values, some of them ahead of it.

Assays:
[1] = test system: HCT116 colon cancer cells; assay: MTT cell viability assay, HCT116; format: cell-based, human; settings: concentrations tested in the previous assays
Method: (§1) For cytotoxicity assays, 1×10^4 cells were seeded per well into a 96-well plate. After 24 h cells were treated with the indicated inhibitors for 72 h and a MTT colorimetric cell viability assay was performed following manufacturer's instructions (Sigma Aldrich, St Louis, Mo.). Absorbance was measured at 570 and 630 nm using a Multiskan Plus Reader (Nanoquant Infinite M200 Tecan Trading AG, Switzerland). Dose-response curves were designed with Graph Pad Prism Software and the half-maximal inhibitory concentration (IC50) values were calculated. Represented data are the mean±SEM of at least three independent experiments with six replicates per condition.

[2] = test system: HT-29 human colorectal adenocarcinoma cell line; assay: E-cadherin at cell-cell contacts, Vala SIM / CyteSeer Cell-Cell Junction Algorithm, HT-29; format: cell-based; settings: for E-cadherin levels at cell-cell contacts: 48 hours, vs DMSO vehicle control; for increase of E-cadherin expression levels: 24 hours
Method: (§2) For western blot analysis, cells were treated with the indicated inhibitors for 48 h and the whole cell extracts were obtained as described previously. Twenty micrograms of lysates were resolved on a 10% polyacrilamide SDS-PAGE followed by western blot analysis performed as previously described. For immunofluorescence assays cells were grown for 24 h on glass coverslips and treated with the indicated inhibitors for 48 h. Cells were fixed with 4% PFA for 15 min, permeabilized with 0.5% […] and incubated with E-cadherin antibody for 2 h. Coverslips were incubated with fluorescein-tagged secondary antibody (Dakopatts, Sweden) for […]. Finally coverslips were mounted with ProLong Gold antifade reagent (LifeTech, UK) and images were taken in epifluorescence microscope (Olympus) using 40× objective. Immunofluorescence of E-cadherin and DNA content analysis for FIGS. 22-23 were performed culturing of HT-29 human colorectal adenocarcinoma cell line in 384-well plates with densities of 3,000 cells per well in a total volume of 25 μl. After the completion of the staining, four images (2×2 array) of each well were taken with Vala Sciences' SIM™ with a 20× objective. Each image was acquired as a SIM Synthetic Focus with a z-stack range of 6 μm with 1 μm steps. The SIM Synthetic Focus feature will compile a “best focus” images from multiple images. One set of SIM Synthetic Focus images were taken in the DAPI channel for Hoechst 33342 staining, and another set of images were taken in the FITC channel for anti-E-cadherin-AlexaFluor488 labeling and analysed by Structured Illumination Microscopy (SIM™) platform to image the cells and Vala's CyteSeer® Cell-Cell Junction Algorithm to quantify the degree of expression and intracellular location of E-cadherin Vala's CyteSeer® Software can also measure relative DNA content by analyzing Total Integrated Intensity (TII) of the Nuclear Image (Ni) on the Nuclear Mask (Nm). This analysis was performed by Vala Science. Twenty compounds from were assayed in a “blinded” manner, at 2 test concentrations in 6 replicate wells for first assay and 3 replicate for second assay.

[3] = test system: non-cancerous HEK293T cells; assay: MTT cell viability assay, HEK293T; format: cell-based, human; settings: concentrations tested in the previous assays
Method: as §1

[4] = test system: HT29 cell line; assay: Invasion assay, HT29 (dose/response); format: cell-based, human; settings: for cell invasion: treated 48 h, 1 μM, 10 μM, 50 μM, vs DMSO
Method: [The procedure below names another cell line; the source lists this cell line under the same test.] For invasion assays, cells were treated with Hakin-1 or DMSO as vehicle for 48 h using 1% FBS during the last 24 hours. 3×10^5 MDCK, MDCK-Hakai or LoVo cells were seeded in a cell invasion chamber (Cell invasion assay kit, Chemicon International) containing medium with 2% FBS. After 72 hours for MDCK and MDCK-Hakai Invasive and 16 h for LoVo cells, invasive cells invaded that reach the lower chamber containing 30% FBS were fixed and stained with crystal violet (Sigma Aldrich, St Louis, Mo.) following the manufacturer's specifications. For migration assays, HT29 cells were cultured with Hakin-1 or DMSO as vehicle for 48 h, using medium without serum the last 24 h. In the cell migration chamber were seeded 3×10^5 HT29 cells (Cell migration kit, Millipore, Bedford, Mass.) containing medium without serum. After 16 h, migrated cells in the lower chamber containing serum with 30% FBS were stained with crystal violet and counted following the manufacturer's specifications. For both invasion and migration assays cells were counted in five fields photographed with an Olympus microscope using a 20× objective, experiments were performed in triplicates for each condition and the assays were repeated at least three times. Results are expressed as mean±SD.

[5] = test system: HT-29 cells; assay: Cell cycle (DNA content) analysis with CyteSeer, HT-29; format: cell-based, human
Method: as §2

[6] = target: T1, E3 ubiquitin-ligase Hakai (Mus musculus, UniProt Q9JIY2); assay: In vivo Hakai-dependent ubiquitination assay in 293T cells; format: cell-based; settings: vs DMSO; for Hakai-induced ubiquitination: HEK293T cells transfected with Hakai and ubiquitin
T1 construct: expressed in transfected cells; host or cells: HEK293T
T1 sequence (Q9JIY2 1-491): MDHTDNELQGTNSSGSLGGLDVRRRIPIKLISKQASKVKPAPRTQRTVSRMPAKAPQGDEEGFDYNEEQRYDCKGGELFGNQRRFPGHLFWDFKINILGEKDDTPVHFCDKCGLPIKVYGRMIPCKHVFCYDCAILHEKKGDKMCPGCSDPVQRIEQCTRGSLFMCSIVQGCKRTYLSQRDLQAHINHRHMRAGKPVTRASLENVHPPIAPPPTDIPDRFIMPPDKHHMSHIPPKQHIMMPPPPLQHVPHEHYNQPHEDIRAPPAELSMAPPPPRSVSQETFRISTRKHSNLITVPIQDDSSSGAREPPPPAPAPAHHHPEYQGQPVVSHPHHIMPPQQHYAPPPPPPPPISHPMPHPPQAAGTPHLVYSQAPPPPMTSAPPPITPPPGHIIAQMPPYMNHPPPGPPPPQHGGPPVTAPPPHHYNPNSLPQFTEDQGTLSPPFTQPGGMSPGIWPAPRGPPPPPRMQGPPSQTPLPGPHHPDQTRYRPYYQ
Method: For ubiquitination assays, 750.000 HEK293T cells were seeded in 6-well cell culture plates and after 24 h were transfected with 0.25 μg Src, 0.75 μg Flag-Hakai, and 0.5 μg HA-ubiquitin with Lipofectamin 2000 (Invitrogen, UK). Six hours after transfection cells were treated with indicated concentrations of Hakin-1, Hakin-5 or the rest of the compounds tested for 36 h. Whole cell extracts were obtained in lysis buffer (20 mM Tris-HCl pH 7.5, 150 mM NaCl and 1% Triton X-100) containing 10 μg/ml leupeptin, 10 μg/ml aprotinin and 1 mM phenylmethanesulphonyl fluoride (PMSF), supplemented with 10 mM N-ethylmaleimide. Cells were harvested and subjected to western blotting using anti-HA antibody to detect ubiquitination.

[7] = test system: HT-29 cells; assay: Immunofluorescence of E-cadherin, HT-29; format: cell-based, human; settings: for E-cadherin expression at cell-cell contacts (immunofluorescence, Image J): 48 hours, 5-100 μM, vs DMSO vehicle control
Method: as §2

[8] = test system: Colon cancer HCT116 cells; assay: BrdU proliferation assay, HCT116; format: cell-based, human; settings: 48 h
Method: (§3) For BrdU assays, 1×10^4 of indicated cells were plated per well into a 96-well plate. After 24 h, cells were treated with the indicated inhibitors for 48 h. Three independent experiments were plated with six replicates per each condition. Cells were treated with […] BrdU for 2 h. BrdU incorporation into newly synthesized DNA was measured using a cell proliferation colorimetric immunoassay kit according to the manufacturer's instructions (Roche, Switzerland). Results are expressed as mean±S.D. Results are represented as percentage of positive cells (mean±S.D) of three independent experiments.

[9] = test system: epithelial MDCK cells; assay: Phase-contrast cell phenotype, MDCK; format: cell-based
Method: (§4) MDCK, HEK293T, HepG2, MCF7 and ACHN cells were cultured in Dulbecco's Modified Eagles Medium (DMEM). MDCK stably expressing Hakai cells (Hakai-MDCK) were previously reported and were growth in DMEM with G418 (800 μg/ml). […] LoVo and PC-3 cells were cultured in F-12K Medium (Kaighn's Modification of Ham's F-12 Medium) and HT-29 and HCT116 cells in McCoy's 5a Medium Modified. 5637 cells were cultured in RPMI medium. All culture media were supplemented with 1% penicillin/streptomycin and 10% of heat-inactivated fetal bovine serum (FBS) at 37° C. in a humidified incubator with 5% CO2. Cells were monthly tested for mycoplasma contamination and used only for 1-3 months after defrosted. LoVo and HT29 cells were authenticated with the StemElite ID system (Promega). For phase-contrast images, culture cells were photographed with a Nikon Eclipse-TI microscope.

[10] = test system: Hakai-MDCK cell lines (clone 4 and clone 11); assay: MTT cell viability assay, Hakai-MDCK; format: cell-based; settings: Hakai-MDCK clone 4 and clone 11, compared with MDCK
Method: as §1

[11] = test system: HT-29 cells; assay: Phase-contrast cell phenotype, HT-29; format: cell-based, human
Method: as §4

[12] = test system: LoVo cells; assay: BrdU proliferation assay, LoVo; format: cell-based; settings: 48 h
Method: as §3

[13] = test system: HT29 cells; assay: BrdU proliferation assay, HT29; format: cell-based, human; settings: 48 h
Method: as §3

[14] = test system: HT-29 cells; assay: Western blotting of EMT markers, HT-29; format: cell-based, human; settings: 48 h
Method: as §2

[15] = test system: Hakai-transformed MDCK cells; assay: Phase-contrast cell phenotype, Hakai-MDCK; format: cell-based; settings: Hakai-transformed MDCK cells (mesenchymal phenotype)
Method: as §4

[16] = test system: normal epithelial MDCK cell line; assay: MTT cell viability assay, MDCK; format: cell-based; settings: compared with Hakai-MDCK
Method: as §1

[17] = test system: LoVo cells; assay: Phase-contrast cell phenotype, LoVo; format: cell-based
Method: as §4

SMILES: O=C(O)c1ccc(-n2nnnc2SC(c2ccccc2)c2ccc(Cl)cc2)cc1 (stereo not shown) [Compound K1]
cytotoxic effect (cell viability, MTT) [1]: no cytotoxic effect
E-cadherin levels at cell-cell contacts ([2]; 100 μM): significantly increased E-cadherin levels at cell-cell contacts
cytotoxic effect (cell viability, MTT) [3]: no cytotoxic effect
cell invasion [4]: reduce cell invasion
cell cycle ([5]; 100 μM, 48 hours): arrested the cells in G0/G1 phase
cell numbers ([5]; 100 μM, 48 hours): reduced the cell numbers
Hakai-induced ubiquitination [6]: reduced ubiquitination at 20 μM and 100 μM

SMILES: Cc1ccc(NC(=O)CSc2nnnn2-c2cccc(C(=O)O)c2)cc1C [Compound K2]
E-cadherin levels at cell-cell contacts ([2]; 100 μM or 20 μM): Significant differences were also detected
cell cycle ([5]; 100 μM, 48 hours): arrested the cells in G0/G1 phase
cell numbers ([5]; 100 μM, 48 hours): reduced the cell numbers

IC50 ([4]; Homo sapiens, HT-29, treated 48 h, read-out: concentration at which 50% inhibition of invasion was achieved): ~1000 nM
Hakai-induced ubiquitination [6]: reduce ubiquitination at 20 μM
SMILES: Cc1ccc(CNC(=O)CSc2nc3sccc3c(=O)n2-c2ccc(C(=O)O)cc2)cc1 [Compound K8]
cytotoxic effect (cell viability, MTT) [1]: inhibitory response in cancer cells
E-cadherin expression at cell-cell contacts (immunofluorescence, Image J) [7]: increase E-cadherin levels at cell-cell contacts
cytotoxic effect (cell viability, MTT) [3]: no effect was detected in non-tumour cells
cell proliferation (BrdU) [8]: inhibit cell proliferation
cell invasion [4]: reduce cell invasion

SMILES: O=C(O)c1ccc(-n2nnnc2SC2CCc3ccccc3NC2=O)cc1 (stereo not shown) [Compound K33]
E-cadherin expression at cell-cell contacts (immunofluorescence, Image J) [7]: increase E-cadherin levels at cell-cell contacts

SMILES: CC(/C=C/C(=O)O)=C\CC(O)/C(C)=C/CCC(C)C(C)O (stereo not shown) [Hakin-5, (2E,4E,8E)-7,13-Dihydroxy-4,8,12-trimethyl-2,4,8-tetradecatrienoic acid, reference compound]
cell phenotype by phase contrast [9]: no effect was observed
sensitivity to treatment (cell viability, MTT) [10]: more sensitive
cell phenotype by phase contrast [11]: modestly induce an epithelial phenotype
cell proliferation (BrdU) [12]: no effect was seen
E-cadherin levels at cell-cell contacts (immunofluorescence) ([7]; 48 h, vs DMSO): no effect by western-blotting or immunofluorescence was detected on E-cadherin protein levels
cell proliferation (BrdU) [13]: no effect was seen
EMT markers expression (E-Cadherin, Cortactin, Hakai) ([14]; HT29): does not affect the EMT markers expression
E-cadherin levels (western blotting) ([14]; HT-29): no effect by western-blotting or immunofluorescence was detected on E-cadherin protein levels
cell phenotype by phase contrast [15]: induction of an epithelial phenotype
ubiquitination mediated by Hakai ([6]; 293T cells transfected with Src, Flag-Hakai and HA-ubiquitin, western blotting anti-HA): no effect was detected on Hakai-mediated ubiquitination
sensitivity to treatment (cell viability, MTT) [16]: more resistant
cell phenotype by phase contrast [17]: modestly induce an epithelial phenotype

SMILES: COC(=O)Nc1nc2ccc(C(=O)c3cccs3)cc2[nH]1 [nocodazole]
increase of E-cadherin expression levels ([2]; 250 ng/ml): 32%
increase of E-cadherin expression levels ([2]; 500 ng/ml): 42%
increase of E-cadherin expression levels ([2]; 1000 ng/ml): 47%
cell cycle ([5]; 24 hours, vs DMSO vehicle control): dramatic shift towards G2/M phase arrest
